From patent US20210338782A1, “STORAGE STABLE SOMATOSTATIN-DOPAMINE CHIMERIC COMPOUNDS AND SALT FORMS THEREOF” (Cydan II, Inc., priority 2019, published 2021)
Counter-ions that a name gives are not always drawn.

What was measured:
FIG. 6B = assay: FIG. 6B
From the text: Table printed on a drawing sheet, FIG. 6B
Footnotes: *N=2 with Animal 2 excluded.
First reader's note: Each Cmax and AUC0-t cell holds the value together with its SD; the sheet prints no units for Cmax or AUC0-t.

[1] = Thermogravimetric analysis (TGA) of TBR-760 salt forms; assay type: physicochemical; conditions: between 110° C. and 200° C.
Description: Thermogravimetric analyses (TGA) were performed on all TBR-760 salt forms to evaluate thermal stability of each salt form. Studies were performed using a TGA-Q500 thermogravimetric analyzer (TA Instruments). The weight of each compound was measured while the temperature was increased at a ramp rate of 5.0° C. per minute from 25 to 400° C. […] The weight loss may be indicative of loss of adsorbed moisture, entrained solvent or volatile impurities. Decomposition of the compound appears to start at about 234° C. (sulfate salt), 245° C. (chloride salt), 252° C. (tosylate salt), and 255° C. (mesylate salt). For the acetate salt, a further ˜5% loss of weight between 110° C. and 200° C. was observed, indicating loss of volatile acetate ions over that temperature range (FIG. 8).

[2] = Photostability of TBR-760 salt forms (ICH Q1B, visible and UV light), appearance and UPLC purity; assay type: physicochemical
From the text: (§1) In order to evaluate the light sensitivity and stability of TBR-760 chimeric peptide salts, all five salt forms were exposed to ultraviolet (UV) and visible light according to International Council for Harmonisation of Technical Requirements for Pharmaceuticals for Human Use (ICH) guideline Q1B for photostability testing. In brief, a Caron 6540-1 photostability chamber unit with separate UV and light chambers was used for the studies. Visible light exposure was 1.2 million lux hours and UV exposure was 200 watt hours/square meter.
Samples were placed in clear, sealed vials and stored in the appropriate chamber alongside dark controls in amber colored vials wrapped in aluminum foil. Control samples were stored in sealed amber vials at −20° C. The appearance of exposed samples was examined visually before being analyzed via UPLC.

[3] = Photostability of alternative salt forms of lanreotide and TBR-760; assay type: physicochemical; conditions: 1.2 million lux hours visible light or 200 watt hours/square meter UV light, versus control
From the text: as §1
Photostability of lanreotide acetate, lanreotide bromide, lanreotide chloride, TBR-760 acetate, TBR-760 bromide and TBR760 chloride was tested according to the methods of Example 7. Four samples were prepared for each salt form: one control for each of the UV and visible light exposure conditions (controls isolated from light) and one sample for exposure to each of the UV and visible light conditions. For each sample, 2-5 mg of the salt was weighed into 3 mL clear serum vials and stoppered. Vials containing control samples were wrapped in aluminum foil.
Following exposure to visible and UV light, all lanreotide and TBR-760 salts were analyzed by UPLC as described in Example 7.

[4] = Thermostability of alternative salt forms of lanreotide and TBR-760 (UPLC); assay type: physicochemical
Description: (§2) Each TBR-760 salt was further evaluated for thermolytic stability over time by setting up three different exposure conditions (25° C. at 60% relative humidity (RH); 40° C. at 75% RH; or 60° C. with open and closed container systems (open dish/closed dish). Approximately 50 mg of each salt form was weighed in a nitrogen-flushed glove box for use in the studies. All samples were stored at −20° C. in a good laboratory practice (GLP) freezer both before and after exposure to the indicated conditions.
(§3) The stability of each salt form was assessed by monitoring the post-exposure drug peak purity and by evaluating the post-exposure visual appearance of the salt. The samples were removed from the exposure conditions and allowed to equilibrate to ambient conditions for 15-20 mins. An appropriate amount of each sample was weighed for analysis and dissolved in diluent (deionized water containing 0.1% TFA) to obtain a stock concentration of 1 mg/mL. The stock solution was then diluted to 0.125 mg/mL in an HPLC vial using diluent and the samples were run on a Waters Acquity UPLC system using the parameters shown in Table 4.
We conducted thermostability studies of lanreotide acetate substantially as described in Example 6. These experiments confirmed that lanreotide acetate is […] when exposed to increasing temperature and humidity conditions over time (FIG. 45). […] (FIG. 45). This degree of thermal and humidity instability is disfavored for a pharmaceutical agent, particularly one intended for patient self-administration at home.
To determine whether a thermostable salt form of TBR-760 could be manufactured, a salt exchange was performed as described in Example 1 to generate bromide and chloride salts of TBR-760. Lanreotide bromide and lanreotide chloride salts were also generated and assessed for thermostability to evaluate the effect of the salt form on compound stability and to compare stability of lanreotide and TBR-760 of each salt.
UPLC assays performed as described in Example 6 were further used to determine the number of degradants—and thus the number of impurities—in each sample. Results showing the purity assessment of each sample following thermostability studies are shown in FIGS. 48A-48B (lanreotide and TBR-760 acetate salts), 49A-49B (lanreotide and TBR-760 bromide salts), and 50A-50B (lanreotide and TBR-760 chloride salts).

[5] = Solid state (thermolytic) stability of TBR-760 salt forms, open container, UPLC peak purity and appearance; assay type: physicochemical
Description: as §2, §3

[6] = Time and temperature stability of lyophilized TBR-760 salts in sealed glass vials (visual appearance, HPLC); assay type: physicochemical; conditions: for salt form degraded: sealed glass vials, HPLC
Description: Lyophilized TBR-760 salts prepared as described above were assessed for stability by visual appearance and HPLC following initial production of the salt and following incubation of the salt at 20° C., 40° C., and 60° C. for 2, 4, and 8 weeks in sealed, glass vials. Changes in visual appearance of the salt were noted by evaluating the color of the substance following each incubation condition. Purity of the salt following each incubation condition was evaluated by HPLC. The number and quantity of degradation products were determined according to the number of absorbance peaks that resulted at different retention times and the size of the peaks.

[7] = 25° C. at 60% RH, open container
[8] = 40° C. at 75% RH, open container
[9] = UPLC peak purity, 25° C. at 60% RH, open container
[10] = UPLC peak purity, 40° C. at 75% RH, open container
[11] = UPLC peak purity, 60° C., open dish

CCCN1C[C@H](CSCC(=O)NCCCC[C@@H](NC(=O)CSC[C@@H]2C[C@@H]3c4cccc5[nH]cc(c45)C[C@H]3N(CCC)C2)C(=O)N[C@H]2CSSC[C@@H](C(=O)N[C@H](C(N)=O)[C@@H](C)O)NC(=O)[C@H](CC)NC(=O)[C@H](CCCCN)NC(=O)[C@@H](Cc3c[nH]c4ccccc34)NC(=O)[C@H](Cc3ccc(O)cc3)NC2=O)C[C@@H]2c3cccc4[nH]cc(c34)C[C@H]21 [TBR-760 Acetate*]
Tmax (median in hr) (FIG. 6B): 24 h

CCCN1C[C@H](CSCC(=O)NCCCC[C@@H](NC(=O)CSC[C@@H]2C[C@@H]3c4cccc5[nH]cc(c45)C[C@H]3N(CCC)C2)C(=O)N[C@H]2CSSC[C@@H](C(=O)N[C@H](C(N)=O)[C@@H](C)O)NC(=O)[C@H](CC)NC(=O)[C@H](CCCCN)NC(=O)[C@@H](Cc3c[nH]c4ccccc34)NC(=O)[C@H](Cc3ccc(O)cc3)NC2=O)C[C@@H]2c3cccc4[nH]cc(c34)C[C@H]21 [TBR-760 Mesylate]
Tmax (median in hr) (FIG. 6B): 30 h

CCCN1C[C@H](CSCC(=O)NCCCC[C@@H](NC(=O)CSC[C@@H]2C[C@@H]3c4cccc5[nH]cc(c45)C[C@H]3N(CCC)C2)C(=O)N[C@H]2CSSC[C@@H](C(=O)N[C@H](C(N)=O)[C@@H](C)O)NC(=O)[C@H](CC)NC(=O)[C@H](CCCCN)NC(=O)[C@@H](Cc3c[nH]c4ccccc34)NC(=O)[C@H](Cc3ccc(O)cc3)NC2=O)C[C@@H]2c3cccc4[nH]cc(c34)C[C@H]21 [TBR-760 acetate, Dop2-D-Lys(Dop2)-cyclo[Cys-Tyr-D-Trp-Lys-Abu-Cys]-Thr-NH2]
TGA further loss of weight [1]: approximately 5%
Purity, UV-exposed ([2]; UPLC, UV 200 watt hours/square meter, clear sealed vial): 96.16
Purity, Control ([2]; UPLC, control in sealed amber vial at -20° C.): 98.35
Purity, Dark Ctrl-UV ([2]; UPLC, dark control in UV chamber): 98.42
Purity, Dark Crtl-Light ([2]; UPLC, dark control in visible light chamber): 98.34
Purity, Light-exposed ([2]; UPLC, visible light 1.2 million lux hours, clear sealed vial): 92.14
Appearance, UV-exposed ([2]; UV 200 watt hours/square meter, clear sealed vial, listed as TBR-760 acetate salt): white to a pale yellow-brown color
Appearance, Control ([2]; control in sealed amber vial at -20° C.): white
Appearance, Dark Ctrl-UV ([2]; dark control in UV chamber, amber vial wrapped in aluminum foil): white
Appearance, Dark Crtl-Light ([2]; dark control in visible light chamber, amber vial wrapped in aluminum foil): white
degradation under dark conditions ([2]; dark controls, UPLC): does not degrade
degradation upon exposure to visible or UV light, in words ([2]; visible and UV light, UPLC): degraded
Appearance, Light-exposed ([2]; visible light 1.2 million lux hours, clear sealed vial, listed as TBR-760 acetate salt): white to yellow-brown
visible appearance after exposure to visible and UV light [3]: from a white salt (control) to a yellow/brown salt
compound degraded ([4]; 4 weeks at 60° C. and ambient humidity): greater than 5%
thermostability in words ([4]; increasing temperature and humidity (25° C./60% RH, 40° C./75% RH, 60° C.) up to 4 weeks): does not maintain stability
Appearance, T = 2 wk [5, 7]: White
Appearance, T = 4 wk [5, 7]: White
Appearance, T = 3 d [5, 7]: White
stability compared with the other salt forms ([5]; 40° C. at 75% RH and 60° C., 2 and 4 weeks, listed as acetate salt): least stable of the salts tested
Appearance, T = 2 wk [5, 8]: White
Appearance, T = 3 d [5, 8]: White
Appearance, T = 4 wk ([5]; 60° C., open dish): Pale Orange
Appearance, T = 3 d ([5]; 60° C., open dish): White
Purity, T = 2 wk [5, 9]: 98.16
Purity, T = 4 wk [5, 9]: 98.09
Purity, T = 3 d [5, 9]: 98.52
Purity, T = 2 wk [5, 10]: 94.52
Purity, T = 4 wk [5, 10]: 92.37
Purity, T = 3 d [5, 10]: 98.4
Purity, T = 2 wk [5, 11]: 89.7
Purity, T = 4 wk [5, 11]: 82.32
Purity, T = 3 d [5, 11]: 96.66
Purity, Control ([5]; UPLC peak purity, control, stored at -20° C.): 98.35
Appearance, Control ([5]; control, stored at -20° C.): White
additional degradants in chromatogram versus control ([5]; two weeks at 60° C., open dish, UPLC, listed as acetate salt): 17
change in visual appearance ([6]; 4 weeks at 60° C.): from a white powder to a yellow powder
salt form degraded ([6]; 60° C. for 4 weeks): 9.9%
salt form degraded ([6]; 60° C. for 8 weeks): more than 16%

CCCN1C[C@H](CSCC(=O)NCCCC[C@@H](NC(=O)CSC[C@@H]2C[C@@H]3c4cccc5[nH]cc(c45)C[C@H]3N(CCC)C2)C(=O)N[C@H]2CSSC[C@@H](C(=O)N[C@H](C(N)=O)[C@@H](C)O)NC(=O)[C@H](CC)NC(=O)[C@H](CCCCN)NC(=O)[C@@H](Cc3c[nH]c4ccccc34)NC(=O)[C@H](Cc3ccc(O)cc3)NC2=O)C[C@@H]2c3cccc4[nH]cc(c34)C[C@H]21 [TBR-760 Tosylate]
Tmax (median in hr) (FIG. 6B): 30 h
